Reference: patent publication US6660830B1, “Peptides with antiproliferative properties” (priority 1996, dated 2003)
Positions of bridges follow the written chain, without caps; N, C: chain ends. Non-standard residues stand in square brackets, D forms with d. Chains are numbered I, II in the order given. No end group written: not given here.

Assays:
MCF-7 cells [1] = assay: Cell cycle distribution by FACS in MCF-7 breast cancer cells; assay type: cell-based; conditions: for morphology of treated cells: peptide 10^-5 M (FIG. 2, 4, 7, 11, 12); for effect on S phase (words, summary of Table 1): MCF-7 stimulated by IGF-1 10^-8 M or insulin 10^-6 M; for effect on S phase (words, summary of Table 1) / G1 (cell population in G1 phase) / G2/M (cell population in G2/M phase) / S (cell population in S phase): peptide 10^-5 M; for G1 (cell population in G1 phase) / G2/M (cell population in G2/M phase) / S (cell population in S phase): FACS
Experimental: (§1) The experimental setting comprises experiments with the breast cancer cell line MCF-7 containing an intact retinblastoma protein and the human osteosarcoma cell line SAOS-2 containing a defective retinoblastoma protein. Cells are seeded in 12-well plates at 100000 (=one hundred thousand) cells/well/ml in RPMI medium or DMEM medium containing 10% FCS and allowed to adhere for 24 hours. Subsequently, the cells are starved by incubation for 3 days in DMEM without FCS, such that they are synchronized in the G0/G1 phase and then the cells are stimulated by 10% FCS or 10^−8 M IGF-1 or 10^−6 M insulin, respectively, for 24 hours. The effect of each of the added peptides on each of the above modes of stimulation, which effect reflects the rate of cell division, is investigated. The control (cells synchronized in G0/G1) is fixed at time 0 after three days of starvation. The remaining cells (+/−peptide) are fixed after 24 hours. The cells are subsequently analyzed by FACS for their cell cycle distribution. Analogous methods are to be found e.g. in R. Fahraeus et al., Current Biology, 1996, vol. 6, no. 1, pp. 84-91 and L. Zhu et al., Genes & Development, 1993, vol. 7, pp. 1111-1125.

SAOS-2 cells [2] = assay: Cell cycle distribution by FACS in SAOS-2 osteosarcoma cells; assay type: cell-based, human; conditions: for effect on cell cycle phases (words, summary of Table 2): peptide 5x10^-5 M each; for G1 (cell population in G1 phase) / G2/M (cell population in G2/M phase) / S (cell population in S phase): SAOS-2 synchronized in G0/G1, stimulated by 10% FCS for 24 h, peptide 5x10^-5 M, FACS
Experimental: as §1

K562 cells = assay: Cytotoxicity by the trypan blue method in K562 leukemia cells; assay type: cell-based; conditions: asynchronously growing K562 in RPMI; peptide 10^-5 M (FIG. 13)
Experimental: The results have been plotted as the living cells treated with P3 being a percentage of the living cells not treated with P3. The number of the living cells has been determined by counting at least 200 cells at each time point according to the trypan blue method.
(§2) The second experimental setting relates to the leukemia cell lines K562 and CCRF-CEM and CCRF-CEM/ACT400. 100000 asynchronously growing cells/well/ml RPMI/10% FCS have each been incubated for 48 hours with each of the peptides in 6-well plates. As a readout, the number of dead cells/200 counted cells is determined according to the trypan blue method (L. D. Attardi et al., The EMBO Journal, 1996, vol. 15, no. 14, pp. 3693-3701 and M. K. Reeder & H. C. Isom, Cell Growth & Differentiation 196, vol. 7, pp. 449-460) after this 48-hour incubation.

CCRF-CEM cells = assay: Cytotoxicity by the trypan blue method in CCRF-CEM sensitive leukemia cells; assay type: cell-based; conditions: asynchronously growing CCRF-CEM sensitive cells, RPMI 10% FCS; peptide 10^-5 M (FIG. 14)
Experimental: as §2

CCRF-CEM/ACT 400 cells = assay: Cytotoxicity by the trypan blue method in CCRF-CEM/ACT 400 resistant leukemia cells; assay type: cell-based; conditions: asynchronously growing CCRF-CEM/ACT 400 resistant cells, RPMI 10% FCS; peptide 10^-5 M (FIG. 14)
Experimental: as §2

[3] = system: normal human peripheral blood mononuclear cells; assay: Effect on normal peripheral blood mononuclear cells; assay type: cell-based; conditions: peptide 10^-5 M, 24 hours (FIG. 15)
Experimental: The incubation of cells with P3 was performed for a time period of 24 hours.

MCF-7 cells [4] = assay: Cell cycle distribution by FACS in MCF-7 breast cancer cells; assay type: cell-based
SAOS-2 cells [5] = assay: Cell cycle distribution by FACS in SAOS-2 osteosarcoma cells; assay type: cell-based, human; conditions: SAOS-2 synchronized in G0/G1, serum-free conditions; peptide 10^-5 M (FIG. 8)
[6] = MCF-7 stimulated by IGF-1 10^-8 M
[7] = MCF-7 stimulated by IGF-1 10^-8 M, peptide 10^-5 M (FIG. 2, 4, 11, 12)
[8] = MCF-7 synchronized in G0/G1, serum-free conditions, peptide 10^-5 M (FIG. 1, 3)
[9] = SAOS-2 stimulated by 10% FCS, peptide 10^-5 M (FIG. 9)
[10] = MCF-7 stimulated by EGF 10^-8 M, peptide 10^-5 M (FIG. 6)
[11] = MCF-7 stimulated by estradiol (E2) 10^-9 M, peptide 10^-5 M (FIG. 6)
[12] = asynchronously growing MCF-7 in DMEM containing 10% FCS, peptide 10^-5 M (FIG. 10)
[13] = MCF-7 synchronized in G0/G1, stimulated by IGF-1 10^-8 M for 24 h
[14] = MCF-7 synchronized in G0/G1, stimulated by insulin 10^-6 M for 24 h

“I: [dL][dF][dY][dK][dK][dV]GGGK[dR]GKG / II: [dL][dF][dY][dK][dK][dV]GGGK[dR]G / III: [dL][dF][dY][dK][dK][dV]GGG / IV: [dL][dF][dY][dK][dK][dV]GGG (amide I:10-IV:C, I:13-II:C, II:10-III:C) [P3, NH2-[dLdFdYdKdKdV-GGG]4-[1KdRG]2-1KG-COOH]” was tested, and the “morphology of treated cells” value (MCF-7 cells [1]; [6]) was “corresponds to that of apoptotic cells”, the “effect on cell cycle phases” value (MCF-7 cells [1]; [7]) was “increase of the G1 and G2/M phases as well as in a decrease of the S phase” and the “effect on cell cycle phases” value (MCF-7 cells [1]; [8]) was “reduces the G1 phase and increases the S phase”. For the same substance, the “effect on cell cycle phases” value (SAOS-2 cells [2]; [9]) was “increases the G1 phase and decreases the S phase”, the “morphology of treated cells” value (SAOS-2 cells [2]; [9]) was “corresponds to that of apoptotic cells” and the “cytotoxic effect (living treated cells as percentage of living untreated cells, trypan blue)” value (K562 cells) was “time-dependent”. The cytotoxic effect (CCRF-CEM cells) was “act in a cytotoxic manner”, the cytotoxic effect (CCRF-CEM/ACT 400 cells) was “act in a cytotoxic manner” and the “effect on normal cells” value ([3]; activated state (b)) was “no effect”. For the same substance, the “morphological changes of treated cells” value ([3]; quiescent or activated) was “do not show any morphological changes”, the “effect on normal cells” value ([3]; quiescent state (a)) was “no effect” and the “morphology of treated cells” value (MCF-7 cells [4]; MCF-7, IGF-1 10^-8 M, peptide 5x10^-6 M (FIG. 7)) was “corresponds to that of apoptotic cells”. For the same substance, the “blocks the progression of the cell cycle caused by IGF-1” value (MCF-7 cells [4]; MCF-7, IGF-1 10^-8 M, several peptide concentrations (FIG. 7)) was “in a dose-dependent manner”, the “effect on cell cycle phases” value (MCF-7 cells [4]; [10]) was “increases the G1- and the G2 phases as well as decreases the S phase” and the “morphology of treated cells” value (MCF-7 cells [4]; [10]) was “corresponds to that of apoptotic cells”. For the same substance, the “effect on cell cycle phases” value (MCF-7 cells [4]; [11]) was “increases the G1- and the G2 phases as well as decreases the S phase”, the “morphology of treated cells” value (MCF-7 cells [4]; [11]) was “corresponds to that of apoptotic cells” and the “morphology of treated cells” value (MCF-7 cells [4]; [8]) was “corresponds to that of apoptotic cells”. The “effect on cell cycle phases” value (MCF-7 cells [4]; [12]) was “reduces the G1 phase and increases the S phase”, the “morphology of treated cells” value (MCF-7 cells [4]; [12]) was “corresponds to that of apoptotic cells” and the “effect on cell cycle phases” value (SAOS-2 cells [5]) was “reduces the G1 phase and increases the S and G2/M phases”. For the same substance, the “morphology of treated cells” value (SAOS-2 cells [5]) was “corresponds to that of apoptotic cells”.

In the case of “NH2-KVLYFKRQIKIWFQNRRMKWKK-COOH (H-KVLYFKRQIKIWFQNRRMKWKK-OH) [P8]”, the “morphology of treated cells” value (MCF-7 cells [1]; [6]) is reported as “corresponds to that of apoptotic cells” and the “effect on cell cycle phases” value (MCF-7 cells [1]; [7]) is reported as “increases the G1 phase and the G2/M phase as well as decreases the S phase”.

For “NH2-LFYKKVPKKKRKV-COOH (H-LFYKKVPKKKRKV-OH) [P5]”, the “effect on S phase (words, summary of Table 1)” value (MCF-7 cells [1]) was “reduce the S phase”, the “effect on cell cycle phases” value (MCF-7 cells [1]; [8]) was “reduces the G1 phase and increases the S phase” and the “G1 (cell population in G1 phase)” value (MCF-7 cells [1]; [13]) was 54.0. For the same substance, the “G2/M (cell population in G2/M phase)” value (MCF-7 cells [1]; [13]) was 13.6, the “S (cell population in S phase)” value (MCF-7 cells [1]; [13]) was 32.4 and the “effect on cell cycle phases (words, summary of Table 2)” value (SAOS-2 cells [2]; SAOS-2 stimulated by 10% FCS) was “increase of the G1 phase and a decrease of the S phase”. For the same substance, the “G1 (cell population in G1 phase)” value (SAOS-2 cells [2]) was 73.5, the “G2/M (cell population in G2/M phase)” value (SAOS-2 cells [2]) was 13.3 and the “S (cell population in S phase)” value (SAOS-2 cells [2]) was 13.2. The “morphology of treated cells” value (MCF-7 cells [4]; [8]) was “corresponds to that of apoptotic cells”.

In the case of “NH2-LFYKKVRQIKIWFQNRRMKWKK-COOH (H-LFYKKVRQIKIWFQNRRMKWKK-OH) [P6]”, the “effect on S phase (words, summary of Table 1)” value (MCF-7 cells [1]) is reported as “reduce the S phase”, the “morphology of treated cells” value (MCF-7 cells [1]; [6]) is reported as “corresponds to that of apoptotic cells” and the “effect on cell cycle phases” value (MCF-7 cells [1]; [7]) is reported as “increases the G1 phase as well as decreases the S phase”. The “effect on cell cycle phases” value (MCF-7 cells [1]; [8]) was “reduces the G1 phase and increases the S phase”, the “G1 (cell population in G1 phase)” value (MCF-7 cells [1]; [13]) was 53.7 and the “G2/M (cell population in G2/M phase)” value (MCF-7 cells [1]; [13]) was 18.6. For the same substance, the “S (cell population in S phase)” value (MCF-7 cells [1]; [13]) was 27.7, the “G1 (cell population in G1 phase)” value (MCF-7 cells [1]; [14]) was 48.7 and the “G2/M (cell population in G2/M phase)” value (MCF-7 cells [1]; [14]) was 14.6. The “effect on cell cycle phases (words, summary of Table 2)” value (SAOS-2 cells [2]; SAOS-2 stimulated by 10% FCS) was “increase of the G1 phase and a decrease of the S phase”, the “G1 (cell population in G1 phase)” value (SAOS-2 cells [2]) was 76.6 and the “G2/M (cell population in G2/M phase)” value (SAOS-2 cells [2]) was 11.2. For the same substance, the “S (cell population in S phase)” value (SAOS-2 cells [2]) was 12.2, the “morphology of treated cells” value (MCF-7 cells [4]; [8]) was “corresponds to that of apoptotic cells” and the “S (cell population in S phase)” value (MCF-7 cells [4]; MCF-7 synchronized in G0/G1, stimulated by insulin 10^-6 M for 24 h, peptide 10^-5 M, FACS) was 36.6.

“NH2-[dKdVdLdYdFdKGGG]4-[1KdRG]2-1KG-COOH (H-[dK][dV][dL][dY][dF][dK]GGG[dK][dV][dL][dY][dF][dK]GGG[dK][dV][dL][dY][dF][dK]GGG[dK][dV][dL][dY][dF][dK]GGGK[dR]GK[dR]GKG-OH; also: branched: four arms on polylysine core) [P7s, combination of dKdVdLdYdFdK, hydropathically homologous to P1, and a polylysine core]” was tested, and the “morphology of treated cells” value (MCF-7 cells [1]; [6]) was “corresponds to that of apoptotic cells” and the “effect on cell cycle phases” value (MCF-7 cells [1]; [7]) was “increases the G1 phase and the G2/M phase as well as decreases the S phase”.
